Measured values as given in patent US5942494A, “Stimulation of gene expression and synthesis of heat shock protein 72/73 (HSP 70)” (The Trustees of Columbia University in the City of New York, priority 1996, dated 1999).
Square brackets hold non-standard residues; d marks the D form. Peptide text beside a SMILES is read from it. Nle = CCCC[C@H](N)C(=O)O

How the values were obtained:
[1] = tested on: hsp70 (hsp72) mRNA; experiment: Northern blot of hsp70 (hsp72) mRNA in HepG2 cells; assay type: cell-based, human
Description: HepG2 cells were treated with serum-free MEM containing either 1.5% BSA alone (Control, lane1), BSA plus 40 μg/ml of ALLN (ALLN, lane2), ALLN and 10 μg/ml of actinomycin D (A+AD, lane3), or ALLN and 50 μg/ml of cycloheximide (A+CXM, lane4). After 4 hours treatment at 37° C., cells were harvested. (B). HepG2 cells were treated with 40 μg/ml of ALLN in the serum-free MEM for up to 0 hour (lane1), 1 hour (lane2), 2 hours (lane3), and 3 hours (lane4) and then harvested without recovery. Or after treatment for 3 hours in the presence of ALLN as above, the ALLN containing medium were removed, cells were washed and fed fresh medium containing only BSA for recovery of up to 1 hour (lane5), 3 hours (lane6), 5 hours (lane7) or 7 hours (lane8). The total RNA was prepared, and equal amounts of the samples were loaded and run on a 1% formaldehyde-agarose gel, blotted onto a nylon membrane, and subsequently hybridized with specific synthetic oligonucleotide probes for hsp70 mRNA as described under Experimental Details. The position of 28S and 18S rRNA are shown for reference.
Total RNA was prepared using the procedure of Chomczynski and Sacchi (Chomczynski, et al., 1987) and a commercially prepared reagent, TRISOLV™ (Biotecx Laboratories Inc., Tex.) . Equal amounts of tRNA samples (10 μg) were size-fractionated on a 1% agarose-formaldehyde gel according to the methods described (Maniatis, et al., 1982) and transferred to a piece of QIAGEN plus nylon membrane. To determine loading and transfer efficiency, RNA was stained with ethidium bromide before and after transfer. The membrane was baked for 30 min. at 80° C. in vacuo (a vacuum) followed by UV cross-linking. It was then incubated for 4 hours at 65° C. in a prehybridization mixture containing 10% dextran sulfate, 1% SDS, 1M sodium chloride, 50 mM Tris-HCl (pH 7.5) and 100 μg/ml denatured salmon sperm DNA. Hybridization was carried out for 18 hours at 65° C. in the same buffer with a ^32 P-labeled (1×10^6 cpm/ml) 40-mer oligonucleotide probe to the untranslated 5' region of a human hsp70 gene (Oncogene Science). […] The membrane was then washed four times with 2×SSC, 0.1% SDS at room temperature, one time at 65° C. for 30 min., and one time at room temperature again for 5 min., and finally rinsed with 2×SSC at room temperature. This membrane was air dried and exposed to X-ray film at -80° C. for 48 hours.
Total RNA was isolated from HepG2 cells which had been incubated for 4 hours at 37° C. (FIG. 5A) with MEM containing BSA alone (Control, lane1), BSA plus 40 μg/ml of ALLN (ALLN, lane2), BSA plus ALLN and […] of actinomycin D (A+AD, lane3) or BSA plus ALLN and 50 μg/ml of cycloheximide (A+CXM, lane4). A radioprobe containing a unique sequence specific for the 5' untranslated region of hsp72 (inducible form) (Freeman et al., 1993) was used for Northern blot analysis.

[2] = tested on: Hsp25; experiment: Immunoprecipitation of Hsp25 from radiolabeled HepG2 cells; assay type: cell-based, human; conditions: HepG2, ALLN 4 hours
Description: FIGS. 7A-7B: Effects of ALLN on the biosynthesis of other members of Hsp family and related proteins. HepG2 cells were pre-treated and radiolabeled with or without ALLN for 4 hours as described in FIG. 1. Cell lysates were used for SDS-PAGE (A), or for immunoprecipitation with anti-Hsp25, -Hsp27, -Hsp60, -Hsp70, -Hsp86, -Hsp90, -Hsp104, -Bip, or -albumin antibodies respectively (1 μg/ml) (B). Because the anti-Hsp25, -Hsp27, -Hsp60 and Hsp90 antibodies are from a rat source, rabbit anti-rat IgG antibody was added after the first incubation, and the incubation was extended for another 1 hour at 4° C. before collection with protein A-Sepharose.Immunoprecipitates were loaded for SDS-PAGE and aliquoted for scintillation counting and plotting. Each value was presented as mean ±S.D. from three individual culture dishes.
HepG2 cells were preincubated for 4 hours in serum-free MEM and then radiolabeled with ^3 H-Leucine (150 μCi/ml) in a serum-free, leucine-free medium. […] Cell lysates containing equal amounts of trichloroacetic acid (TCA)-insoluble radioactivity were used for immunoprecipitations by incubating with individual monoclonal antibody (1 μg/ml) for 2.5 hours at 4° C. […]

[3] = tested on: 3-hydroxy-3-methylglutaryl-coenzyme A (HMG-CoA) reductase; conditions: Inoue, et al., 1991; cited from earlier work

CCCC[C@@H](C=O)NC(=O)[C@H](CC(C)C)NC(=O)[C@H](CC(C)C)NC(C)=O [ALLN, N-acetyl-leucyl-leucyl-norleucinal] (Ac-Leu-Leu-[Nle]-aldehyde)
hsp70 (hsp72) mRNA after recovery ([1]; 3 hours ALLN 40 μg/ml, then 7 hours of recovery in ALLN-free medium): declined to background levels | Time of ALLN treatment to significant elevation of hsp70 (hsp72) mRNA ([1]; ALLN 40 μg/ml): ≤ 60 min | Amount of hsp70 (hsp72) mRNA ([1]; ALLN 40 μg/ml, 4 hours at 37° C.): increased dramatically | Effect on Hsp25 [2]: no effects | Protection of HMG-CoA reductase [3]: protected
